Measured values from the kinase profiling compilation of Christmann-Franck et al. (2016).

Assays:
Assay in all cases: KINOMEscan competition binding
Details in all cases: compound 10.0 µM
CDC2L2 (human) = CDC2L2 (human) (UniProt Q9UQ88)
FGFR3 (human) = FGFR3 (human) (UniProt P22607)
KDR (human) = KDR (human) (UniProt P35968)
ROCK2 (human) = ROCK2 (human) (UniProt O75116)
MST4 (human) = MST4 (human) (UniProt Q9P289)
MAPK3 (human) = MAPK3 (human) (UniProt P27361)
[1] = tested on: RET (human), P07949 [M918T]
SLK (human) = SLK (human) (UniProt Q9H2G2)
PLK3 (human) = PLK3 (human) (UniProt Q9H4B4)
PRKACA (human) = PRKACA (human) (UniProt P17612)
MLTK (human) = MLTK (human) (UniProt Q9NYL2)
PRKAA2 (human) = PRKAA2 (human) (UniProt P54646)
TNK2 (human) = TNK2 (human) (UniProt Q07912)
[2] = biological target: JAK1 JH1 catalytic (human) (UniProt P23458)
EPHA6 (human) = EPHA6 (human) (UniProt Q9UF33)
YES1 (human) = YES1 (human) (UniProt P07947)
EPHA8 (human) = EPHA8 (human) (UniProt P29322)
CDK11A (human) = CDK11A (human) (UniProt Q9UQ88)
EIF2AK2 (human) = EIF2AK2 (human) (UniProt P19525)
MAPK4 (human) = MAPK4 (human) (UniProt P31152)
MET (human) = MET (human) (UniProt P08581)
ABL2 (human) = ABL2 (human) (UniProt P42684)
ULK3 (human) = ULK3 (human) (UniProt Q6PHR2)
DCLK1 (human) = DCLK1 (human) (UniProt O15075)
ANKK1 (human) = ANKK1 (human) (UniProt Q8NFD2)
ADCK3 (human) = ADCK3 (human) (UniProt Q8NI60)
MAP3K12 (human) = MAP3K12 (human) (UniProt Q12852)
NUAK2 (human) = NUAK2 (human) (UniProt Q9H093)
RPS6KA3 KD1 (human) = RPS6KA3 KD1 (human) (UniProt P51812)
MAPK12 (human) = MAPK12 (human) (UniProt P53778)
INSRR (human) = INSRR (human) (UniProt P14616)
NEK9 (human) = NEK9 (human) (UniProt Q8TD19)
PDGFRA (human) = PDGFRA (human) (UniProt P16234)
FGFR4 (human) = FGFR4 (human) (UniProt P22455)
NEK1 (human) = NEK1 (human) (UniProt Q96PY6)
PAK3 (human) = PAK3 (human) (UniProt O75914)
PRKCD (human) = PRKCD (human) (UniProt Q05655)
LYN (human) = LYN (human) (UniProt P07948)
PAK1 (human) = PAK1 (human) (UniProt Q13153)
GSK3B (human) = GSK3B (human) (UniProt P49841)
SIK1 (human) = SIK1 (human) (UniProt P57059)
CSF1R (human) = CSF1R (human) (UniProt P07333)

LYN (human), sequence (P07948 whole entry, looked up): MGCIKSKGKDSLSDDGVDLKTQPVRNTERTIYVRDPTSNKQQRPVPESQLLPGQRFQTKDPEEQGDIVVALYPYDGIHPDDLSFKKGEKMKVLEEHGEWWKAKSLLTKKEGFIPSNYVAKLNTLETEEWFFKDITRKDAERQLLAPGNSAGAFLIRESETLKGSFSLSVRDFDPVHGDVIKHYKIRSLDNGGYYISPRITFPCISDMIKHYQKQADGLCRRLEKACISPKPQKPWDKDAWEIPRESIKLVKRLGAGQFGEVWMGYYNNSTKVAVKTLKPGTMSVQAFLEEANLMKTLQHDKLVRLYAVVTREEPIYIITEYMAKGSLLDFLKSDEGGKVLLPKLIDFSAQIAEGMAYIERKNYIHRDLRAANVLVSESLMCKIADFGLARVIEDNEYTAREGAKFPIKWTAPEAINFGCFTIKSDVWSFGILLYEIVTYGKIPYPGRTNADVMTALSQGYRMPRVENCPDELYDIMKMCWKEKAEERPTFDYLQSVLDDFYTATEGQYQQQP
RPS6KA3 KD1 (human), sequence (P51812 whole entry, looked up): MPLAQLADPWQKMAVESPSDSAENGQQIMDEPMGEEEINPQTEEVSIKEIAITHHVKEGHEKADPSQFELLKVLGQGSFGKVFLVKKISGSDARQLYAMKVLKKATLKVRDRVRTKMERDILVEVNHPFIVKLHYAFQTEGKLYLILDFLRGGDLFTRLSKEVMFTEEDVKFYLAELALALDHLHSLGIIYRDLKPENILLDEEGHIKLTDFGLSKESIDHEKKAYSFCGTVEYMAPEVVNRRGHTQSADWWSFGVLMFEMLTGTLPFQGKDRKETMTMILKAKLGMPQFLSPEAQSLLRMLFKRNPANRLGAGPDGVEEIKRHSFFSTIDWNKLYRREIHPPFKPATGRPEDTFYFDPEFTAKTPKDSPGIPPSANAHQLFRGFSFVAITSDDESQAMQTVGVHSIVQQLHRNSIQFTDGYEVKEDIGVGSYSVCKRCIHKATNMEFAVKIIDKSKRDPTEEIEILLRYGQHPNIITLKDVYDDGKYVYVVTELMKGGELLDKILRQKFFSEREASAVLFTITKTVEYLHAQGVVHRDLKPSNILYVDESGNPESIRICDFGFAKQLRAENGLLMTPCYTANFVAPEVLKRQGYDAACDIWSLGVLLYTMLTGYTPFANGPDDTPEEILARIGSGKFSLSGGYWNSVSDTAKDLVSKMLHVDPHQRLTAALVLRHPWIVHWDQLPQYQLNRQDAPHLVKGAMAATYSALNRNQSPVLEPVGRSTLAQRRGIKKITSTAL
DCLK1 (human), sequence (O15075 whole entry, looked up): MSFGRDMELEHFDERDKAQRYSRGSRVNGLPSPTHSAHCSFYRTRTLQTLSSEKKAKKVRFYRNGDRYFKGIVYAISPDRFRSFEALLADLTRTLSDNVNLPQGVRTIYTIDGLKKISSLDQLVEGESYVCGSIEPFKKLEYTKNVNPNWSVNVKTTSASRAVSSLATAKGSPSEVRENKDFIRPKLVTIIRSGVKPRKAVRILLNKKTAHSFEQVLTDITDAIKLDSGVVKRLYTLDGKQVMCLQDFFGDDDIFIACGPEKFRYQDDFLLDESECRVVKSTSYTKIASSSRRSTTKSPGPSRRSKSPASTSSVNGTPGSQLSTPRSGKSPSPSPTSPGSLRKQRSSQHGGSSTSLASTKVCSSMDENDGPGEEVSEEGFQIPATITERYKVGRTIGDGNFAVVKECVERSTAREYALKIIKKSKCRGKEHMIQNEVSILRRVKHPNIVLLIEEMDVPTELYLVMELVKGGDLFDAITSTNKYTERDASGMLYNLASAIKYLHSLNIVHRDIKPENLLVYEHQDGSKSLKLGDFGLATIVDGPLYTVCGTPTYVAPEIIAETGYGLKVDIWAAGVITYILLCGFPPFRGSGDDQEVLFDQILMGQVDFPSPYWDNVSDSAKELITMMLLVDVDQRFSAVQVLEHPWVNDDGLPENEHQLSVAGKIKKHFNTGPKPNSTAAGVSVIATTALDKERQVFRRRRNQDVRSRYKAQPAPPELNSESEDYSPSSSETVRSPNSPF
RET (human), P07949 [M918T], sequence (P07949 whole entry M918T, looked up): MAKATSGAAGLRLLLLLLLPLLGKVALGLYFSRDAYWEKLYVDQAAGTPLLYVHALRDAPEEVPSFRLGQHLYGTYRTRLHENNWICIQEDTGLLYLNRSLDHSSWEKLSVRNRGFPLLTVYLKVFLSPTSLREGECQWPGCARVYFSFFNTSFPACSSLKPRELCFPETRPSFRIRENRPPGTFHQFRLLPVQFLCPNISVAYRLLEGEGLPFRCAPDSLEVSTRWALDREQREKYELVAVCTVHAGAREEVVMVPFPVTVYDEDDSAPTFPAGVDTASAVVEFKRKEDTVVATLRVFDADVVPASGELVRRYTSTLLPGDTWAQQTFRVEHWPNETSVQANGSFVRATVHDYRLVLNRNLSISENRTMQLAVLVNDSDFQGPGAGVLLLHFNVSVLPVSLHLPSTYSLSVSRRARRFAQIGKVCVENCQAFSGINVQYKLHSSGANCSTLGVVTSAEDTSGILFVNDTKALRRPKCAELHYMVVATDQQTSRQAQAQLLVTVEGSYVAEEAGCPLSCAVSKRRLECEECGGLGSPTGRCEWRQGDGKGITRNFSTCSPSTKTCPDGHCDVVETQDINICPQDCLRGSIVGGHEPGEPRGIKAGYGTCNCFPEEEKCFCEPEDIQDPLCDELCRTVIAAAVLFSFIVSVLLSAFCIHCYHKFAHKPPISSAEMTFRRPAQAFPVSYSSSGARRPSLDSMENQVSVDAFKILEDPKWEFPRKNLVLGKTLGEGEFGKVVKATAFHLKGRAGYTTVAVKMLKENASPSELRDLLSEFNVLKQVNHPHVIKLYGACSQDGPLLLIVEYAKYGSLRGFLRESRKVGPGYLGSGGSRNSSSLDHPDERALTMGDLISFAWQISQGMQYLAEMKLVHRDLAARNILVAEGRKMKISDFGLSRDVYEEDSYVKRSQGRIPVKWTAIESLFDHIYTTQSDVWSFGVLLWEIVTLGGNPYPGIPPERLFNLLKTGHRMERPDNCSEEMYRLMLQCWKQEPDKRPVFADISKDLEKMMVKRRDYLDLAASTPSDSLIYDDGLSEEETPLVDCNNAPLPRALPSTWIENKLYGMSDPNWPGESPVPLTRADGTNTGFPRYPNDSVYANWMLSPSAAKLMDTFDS
EPHA6 (human), sequence (Q9UF33 whole entry, looked up): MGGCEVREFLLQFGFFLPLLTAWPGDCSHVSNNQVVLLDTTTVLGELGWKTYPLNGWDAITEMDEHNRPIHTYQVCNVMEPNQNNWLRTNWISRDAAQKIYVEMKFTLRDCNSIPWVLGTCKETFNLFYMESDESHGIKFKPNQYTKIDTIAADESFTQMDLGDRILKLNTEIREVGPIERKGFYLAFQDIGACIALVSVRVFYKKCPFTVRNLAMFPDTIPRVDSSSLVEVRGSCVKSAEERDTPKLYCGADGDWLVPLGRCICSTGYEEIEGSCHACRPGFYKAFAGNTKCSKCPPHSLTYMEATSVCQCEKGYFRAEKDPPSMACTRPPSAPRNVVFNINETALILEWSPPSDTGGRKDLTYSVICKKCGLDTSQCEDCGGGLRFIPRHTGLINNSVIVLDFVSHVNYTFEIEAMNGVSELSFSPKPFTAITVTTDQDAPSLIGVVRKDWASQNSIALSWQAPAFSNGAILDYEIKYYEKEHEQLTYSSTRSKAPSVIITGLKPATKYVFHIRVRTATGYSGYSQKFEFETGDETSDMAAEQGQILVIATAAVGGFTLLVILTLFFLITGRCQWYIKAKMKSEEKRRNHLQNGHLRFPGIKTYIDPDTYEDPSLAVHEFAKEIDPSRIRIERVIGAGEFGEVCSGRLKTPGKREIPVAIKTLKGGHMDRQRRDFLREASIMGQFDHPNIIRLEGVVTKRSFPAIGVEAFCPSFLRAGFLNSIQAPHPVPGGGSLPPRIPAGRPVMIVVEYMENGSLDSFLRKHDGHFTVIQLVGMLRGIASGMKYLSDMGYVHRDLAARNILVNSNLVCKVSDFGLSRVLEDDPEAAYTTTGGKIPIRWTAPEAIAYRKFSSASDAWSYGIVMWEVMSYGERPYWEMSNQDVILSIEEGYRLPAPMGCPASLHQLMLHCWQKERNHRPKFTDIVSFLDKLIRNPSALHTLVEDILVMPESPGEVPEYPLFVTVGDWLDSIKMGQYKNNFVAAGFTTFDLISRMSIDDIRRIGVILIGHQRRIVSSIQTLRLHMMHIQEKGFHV
MAP3K12 (human), sequence (Q12852 whole entry, looked up): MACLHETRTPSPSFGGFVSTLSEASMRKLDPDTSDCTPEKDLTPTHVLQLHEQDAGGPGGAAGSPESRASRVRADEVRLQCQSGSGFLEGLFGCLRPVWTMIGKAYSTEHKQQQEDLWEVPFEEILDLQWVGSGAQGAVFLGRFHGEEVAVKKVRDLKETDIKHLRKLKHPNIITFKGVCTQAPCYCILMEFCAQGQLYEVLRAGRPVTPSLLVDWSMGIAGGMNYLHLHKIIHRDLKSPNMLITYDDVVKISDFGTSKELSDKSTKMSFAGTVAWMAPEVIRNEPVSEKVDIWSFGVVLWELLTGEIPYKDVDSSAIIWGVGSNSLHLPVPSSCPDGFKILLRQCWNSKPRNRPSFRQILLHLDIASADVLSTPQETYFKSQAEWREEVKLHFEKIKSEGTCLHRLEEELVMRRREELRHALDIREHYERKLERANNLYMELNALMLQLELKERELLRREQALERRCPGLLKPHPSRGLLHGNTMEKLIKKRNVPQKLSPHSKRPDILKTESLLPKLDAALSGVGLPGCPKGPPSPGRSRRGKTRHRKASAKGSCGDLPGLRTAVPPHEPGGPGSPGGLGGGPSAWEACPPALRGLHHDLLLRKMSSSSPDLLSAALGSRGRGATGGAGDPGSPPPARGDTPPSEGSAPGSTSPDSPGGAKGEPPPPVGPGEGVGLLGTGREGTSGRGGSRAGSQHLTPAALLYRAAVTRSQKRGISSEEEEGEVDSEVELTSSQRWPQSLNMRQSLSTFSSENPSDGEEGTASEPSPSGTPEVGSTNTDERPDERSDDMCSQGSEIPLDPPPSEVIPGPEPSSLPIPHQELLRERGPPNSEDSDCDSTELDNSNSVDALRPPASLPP

CN1C(=O)c2ccccc2N(C)c2nc(Nc3ccc(N4CCC(O)CC4)cc3)ncc21
kinase still bound, per cent of control (CDC2L2 (human)): 100% | kinase still bound, per cent of control (FGFR3 (human)): 62% | kinase still bound, per cent of control (KDR (human)): 97% | kinase still bound, per cent of control (ROCK2 (human)): 86% | kinase still bound, per cent of control (MST4 (human)): 27% | kinase still bound, per cent of control (MAPK3 (human)): 100% | kinase still bound, per cent of control [1]: 4.2% | kinase still bound, per cent of control (SLK (human)): 100% | kinase still bound, per cent of control (PLK3 (human)): 97% | kinase still bound, per cent of control (PRKACA (human)): 100% | kinase still bound, per cent of control (MLTK (human)): 100% | kinase still bound, per cent of control (PRKAA2 (human)): 31% | kinase still bound, per cent of control (TNK2 (human)): 29% | kinase still bound, per cent of control [2]: 30% | kinase still bound, per cent of control (EPHA6 (human)): 100% | kinase still bound, per cent of control (YES1 (human)): 38% | kinase still bound, per cent of control (EPHA8 (human)): 100% | kinase still bound, per cent of control (CDK11A (human)): 100% | kinase still bound, per cent of control (EIF2AK2 (human)): 100% | kinase still bound, per cent of control (MAPK4 (human)): 100% | kinase still bound, per cent of control (MET (human)): 77% | kinase still bound, per cent of control (ABL2 (human)): 33% | kinase still bound, per cent of control (ULK3 (human)): 77% | kinase still bound, per cent of control (DCLK1 (human)): 1.8% | kinase still bound, per cent of control (ANKK1 (human)): 100% | kinase still bound, per cent of control (ADCK3 (human)): 100% | kinase still bound, per cent of control (MAP3K12 (human)): 85% | kinase still bound, per cent of control (NUAK2 (human)): 23% | kinase still bound, per cent of control (RPS6KA3 KD1 (human)): 85% | kinase still bound, per cent of control (MAPK12 (human)): 100% | kinase still bound, per cent of control (INSRR (human)): 96% | kinase still bound, per cent of control (NEK9 (human)): 100% | kinase still bound, per cent of control (PDGFRA (human)): 100% | kinase still bound, per cent of control (FGFR4 (human)): 73% | kinase still bound, per cent of control (NEK1 (human)): 93% | kinase still bound, per cent of control (PAK3 (human)): 37% | kinase still bound, per cent of control (PRKCD (human)): 100% | kinase still bound, per cent of control (LYN (human)): 80% | kinase still bound, per cent of control (PAK1 (human)): 100% | kinase still bound, per cent of control (GSK3B (human)): 88% | kinase still bound, per cent of control (SIK1 (human)): 79% | kinase still bound, per cent of control (CSF1R (human)): 5.8%

CN1C(=O)c2ccccc2N(C)c2nc(NS(=O)(=O)c3ccc(N)cc3)ncc21
kinase still bound, per cent of control (CDC2L2 (human)): 100% | kinase still bound, per cent of control (FGFR3 (human)): 100% | kinase still bound, per cent of control (KDR (human)): 88% | kinase still bound, per cent of control (ROCK2 (human)): 100% | kinase still bound, per cent of control (MST4 (human)): 100% | kinase still bound, per cent of control (MAPK3 (human)): 100% | kinase still bound, per cent of control [1]: 100% | kinase still bound, per cent of control (SLK (human)): 100% | kinase still bound, per cent of control (PLK3 (human)): 100% | kinase still bound, per cent of control (PRKACA (human)): 100% | kinase still bound, per cent of control (MLTK (human)): 100% | kinase still bound, per cent of control (PRKAA2 (human)): 96% | kinase still bound, per cent of control (TNK2 (human)): 100% | kinase still bound, per cent of control [2]: 100% | kinase still bound, per cent of control (EPHA6 (human)): 100% | kinase still bound, per cent of control (YES1 (human)): 100% | kinase still bound, per cent of control (EPHA8 (human)): 100% | kinase still bound, per cent of control (CDK11A (human)): 99% | kinase still bound, per cent of control (EIF2AK2 (human)): 91% | kinase still bound, per cent of control (MAPK4 (human)): 88% | kinase still bound, per cent of control (MET (human)): 100% | kinase still bound, per cent of control (ABL2 (human)): 100% | kinase still bound, per cent of control (ULK3 (human)): 100% | kinase still bound, per cent of control (DCLK1 (human)): 39% | kinase still bound, per cent of control (ANKK1 (human)): 32% | kinase still bound, per cent of control (ADCK3 (human)): 99% | kinase still bound, per cent of control (MAP3K12 (human)): 90% | kinase still bound, per cent of control (NUAK2 (human)): 70% | kinase still bound, per cent of control (RPS6KA3 KD1 (human)): 100% | kinase still bound, per cent of control (MAPK12 (human)): 100% | kinase still bound, per cent of control (INSRR (human)): 100% | kinase still bound, per cent of control (NEK9 (human)): 100% | kinase still bound, per cent of control (PDGFRA (human)): 100% | kinase still bound, per cent of control (FGFR4 (human)): 100% | kinase still bound, per cent of control (NEK1 (human)): 100% | kinase still bound, per cent of control (PAK3 (human)): 76% | kinase still bound, per cent of control (PRKCD (human)): 100% | kinase still bound, per cent of control (LYN (human)): 100% | kinase still bound, per cent of control (PAK1 (human)): 100% | kinase still bound, per cent of control (GSK3B (human)): 94% | kinase still bound, per cent of control (SIK1 (human)): 100% | kinase still bound, per cent of control (CSF1R (human)): 89%
